Results published in PubChem BioAssay AID192 (DTP/NCI, 2004).
Values joined by “and” are separate entries in the source; they are usually repeats but may differ in a detail not shown here. Identical values can stand only once. Inconclusive results and toxic doses are left out.

Test system: BDF1 mice, B16 melanoma ip, median survival T/C
Experiment: NCI In Vivo Anticancer Drug Screen. Data for tumor model B16 Melanoma (intraperitoneal) in B6D2F1 (BDF1) mice
Details: endpoint: median survival time, higher = longer survival
In short: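 Compounds were tested in mice carrying transplantable tumors. Survival or tumor size was recorded, and each value is the treated-group measurement (T) divided by that of the vehicle-treated control group (C).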

[1] = dose: 3.12 mg/kg/injection, schedule: Q01DX009 (ip), vehicle: saline
[2] = dose: 6.25 mg/kg/injection, schedule: Q01DX009 (ip), vehicle: saline
[3] = dose: 12.5 mg/kg/injection, schedule: Q01DX009 (ip), vehicle: saline
[4] = dose: 25.0 mg/kg/injection, schedule: Q01DX009 (ip), vehicle: saline
[5] = dose: 6.25 mg/kg/injection, schedule: Q01DX009 (ip), vehicle: Klucel (hydroxypropylcellulose) (HPC)
[6] = dose: 12.5 mg/kg/injection, schedule: Q01DX009 (ip), vehicle: Klucel (hydroxypropylcellulose) (HPC)
[7] = dose: 25.0 mg/kg/injection, schedule: Q01DX009 (ip), vehicle: Klucel (hydroxypropylcellulose) (HPC)
[8] = dose: 50.0 mg/kg/injection, schedule: Q01DX009 (ip), vehicle: Klucel (hydroxypropylcellulose) (HPC)
[9] = dose: 50.0 mg/kg/injection, schedule: Q01DX009 (ip), vehicle: saline with Tween-80
[10] = dose: 100.0 mg/kg/injection, schedule: Q01DX009 (ip), vehicle: saline with Tween-80
[11] = dose: 100.0 mg/kg/injection, schedule: Q01DX009 (ip), vehicle: Klucel (hydroxypropylcellulose) (HPC)
[12] = dose: 200.0 mg/kg/injection, schedule: Q01DX009 (ip), vehicle: Klucel (hydroxypropylcellulose) (HPC)
[13] = dose: 400.0 mg/kg/injection, schedule: Q01DX009 (ip), vehicle: Klucel (hydroxypropylcellulose) (HPC)
[14] = dose: 50.0 mg/kg/injection, schedule: Q01DX009 (ip), vehicle: saline

## CN(C)CCN1C(=O)CC(c2ccccc2)Sc2ccccc21 (centres undefined)
[1]
  T/C: 115 % of control
[2]
  T/C: 112 % of control
[3]
  T/C: 107 % of control
[4]
  T/C: 97 % of control

## Cc1ccc(C(C)(C)C[P+](C)(c2ccccc2)c2ccccc2)cc1
[5]
  T/C: 90 % of control
[6]
  T/C: 94 % of control
[7]
  T/C: 99 % of control
[8]
  T/C: 93 % of control

## O=C(Nc1cccc(C(F)(F)F)c1)c1ccc(C(=O)Nc2cccc(C(F)(F)F)c2)cc1
dose: 25.0 mg/kg/injection, schedule: Q01DX009 (ip), vehicle: saline with Tween-80
  T/C: 205 % of control
[9]
  T/C: 184 % of control
[10]
  T/C: 90 % of control

## CCOc1cc(N)ccc1C
[8]
  T/C: 93 % of control
[11]
  T/C: 93 % of control
[12]
  T/C: 95 % of control

## COC1=C2C[C@@H](C)C[C@@H](OC)[C@@H](O)[C@H](C)/C=C(\C)[C@@H](OC(N)=O)[C@H](OC)/C=C\C=C(/C)C(=O)NC(=CC1=O)C2=O
dose: 0.5 mg/kg/injection, schedule: Q01DX005 (ip), vehicle: other
  T/C: 110 % of control
dose: 0.5 mg/kg/injection, schedule: Q01DX005 (ip), vehicle: saline with Tween-80
  T/C: 112 % of control
dose: 0.5 mg/kg/injection, schedule: Q01DX005 (ip), vehicle: water
  T/C: 112 % of control and 118 % of control
dose: 0.5 mg/kg/injection, schedule: Q01DX009 (ip), vehicle: saline with Tween-80
  T/C: 110 % of control
dose: 1.0 mg/kg/injection, schedule: Q01DX005 (ip), vehicle: saline with Tween-80
  T/C: 118 % of control
dose: 1.0 mg/kg/injection, schedule: Q01DX005 (ip), vehicle: water
  T/C: 119 % of control
dose: 2.0 mg/kg/injection, schedule: Q01DX005 (ip), vehicle: saline with Tween-80
  T/C: 118 % of control

## C[n+]1ccccc1/C=N/O
dose: 18.75 mg/kg/injection, schedule: Q01DX009 (ip), vehicle: saline
  T/C: 100 % of control
dose: 37.5 mg/kg/injection, schedule: Q01DX009 (ip), vehicle: saline
  T/C: 107 % of control
dose: 75.0 mg/kg/injection, schedule: Q01DX009 (ip), vehicle: saline
  T/C: 88 % of control and 106 % of control

## CC(=O)C1(O)Cc2c(O)c3c(c(O)c2C(OC2CC(N)C(O)C(C)O2)C1)C(=O)c1ccccc1C3=O (centres undefined)
dose: 0.16 mg/kg/injection, schedule: Q01DX001 (ip), vehicle: water
  T/C: 117 % of control
dose: 0.31 mg/kg/injection, schedule: Q01DX001 (ip), vehicle: water
  T/C: 121 % of control
dose: 0.63 mg/kg/injection, schedule: Q01DX001 (ip), vehicle: water
  T/C: 123 % of control
dose: 1200.0 micrograms/kg/injection, schedule: Q04DX003 (ip), vehicle: water
  T/C: 94 % of control

## Cc1ccc(Cl)cc1NC(=O)c1ccccc1C(=O)O
[11]
  T/C: 93 % of control
[12]
  T/C: 93 % of control
[13]
  T/C: 103 % of control

## CN1CCc2cc3c(c4c2C1C(O)c1ccccc1-4)OCO3 (centres undefined)
dose: 0.5 mg/kg/injection, schedule: Q01DX009 (ip), vehicle: acid diluted with saline
  T/C: 113 % of control
dose: 1.0 mg/kg/injection, schedule: Q01DX009 (ip), vehicle: acid diluted with saline
  T/C: 109 % of control
dose: 2.0 mg/kg/injection, schedule: Q01DX009 (ip), vehicle: acid diluted with saline
  T/C: 96 % of control
dose: 4.0 mg/kg/injection, schedule: Q01DX009 (ip), vehicle: acid diluted with saline
  T/C: 89 % of control

## CC1C(=O)OCC2=CCN3CCC(OC(=O)C(C)C1(C)O)C23 (centres undefined)
dose: 5.0 mg/kg/injection, schedule: Q01DX009 (ip), vehicle: saline
  T/C: 109 % of control
dose: 10.0 mg/kg/injection, schedule: Q01DX009 (ip), vehicle: saline
  T/C: 111 % of control
[3]
  T/C: 123 % of control
dose: 20.0 mg/kg/injection, schedule: Q01DX009 (ip), vehicle: saline
  T/C: 111 % of control
[4]
  T/C: 121 % of control
dose: 40.0 mg/kg/injection, schedule: Q01DX009 (ip), vehicle: saline
  T/C: 109 % of control
[14]
  T/C: 121 % of control

## Cc1c(C)c2c(c(C)c1O)CCC(C)(CCCC(C)CCCC(C)CCCC(C)C)O2 (centres undefined)
[10]
  T/C: 95 % of control
dose: 200.0 mg/kg/injection, schedule: Q01DX009 (ip), vehicle: saline with Tween-80
  T/C: 90 % of control

## COC1C(O)CC(OC2CC(OC3CC(O[C@@H]4C(=O)c5c(cc6cc(OC7CC(OC8CC(O)C(O)C(C)O8)C(O)C(C)O7)c(C)c(O)c6c5O)C[C@H]4[C@H](OC)C(=O)[C@@H](O)[C@@H](C)O)OC(C)C3O)OC(C)C2O)OC1C (some centres undefined)
dose: 188.0 micrograms/kg/injection, schedule: Q01DX009 (ip), vehicle: water
  T/C: 106 % of control
dose: 375.0 micrograms/kg/injection, schedule: Q01DX009 (ip), vehicle: water
  T/C: 105 % of control
dose: 750.0 micrograms/kg/injection, schedule: Q01DX009 (ip), vehicle: water
  T/C: 121 % of control

## [Cl][Ni+2][Cl].[NH-]CCN1CC1
dose: 0.78 mg/kg/injection, schedule: Q01DX009 (ip), vehicle: saline
  T/C: 97 % of control
dose: 1.56 mg/kg/injection, schedule: Q01DX009 (ip), vehicle: saline
  T/C: 97 % of control
[1]
  T/C: 90 % of control

## Oc1ccccc1C(Nc1nc2ccccc2s1)c1ccc2cccnc2c1O (centres undefined)
[7]
  T/C: 114 % of control
[8]
  T/C: 105 % of control and 119 % of control (2×)
dose: 75.0 mg/kg/injection, schedule: Q01DX009 (ip), vehicle: Klucel (hydroxypropylcellulose) (HPC)
  T/C: 107 % of control
[11]
  T/C: 110 % of control and 119 % of control
dose: 150.0 mg/kg/injection, schedule: Q01DX009 (ip), vehicle: Klucel (hydroxypropylcellulose) (HPC)
  T/C: 97 % of control
[12]
  T/C: 124 % of control
[13]
  T/C: 152 % of control

## C=C1C(=O)OC2C3OC(C)(CCC(O)C3COC(C)=O)CC(OC(=O)/C(=C/C)COC(C)=O)C12 (centres undefined)
dose: 0.04 mg/kg/injection, schedule: Q01DX009 (ip), vehicle: suspension in saline
  T/C: 111 % of control
dose: 0.09 mg/kg/injection, schedule: Q01DX009 (ip), vehicle: suspension in saline
  T/C: 109 % of control
dose: 0.18 mg/kg/injection, schedule: Q01DX009 (ip), vehicle: suspension in saline
  T/C: 107 % of control
dose: 0.37 mg/kg/injection, schedule: Q01DX009 (ip), vehicle: suspension in saline
  T/C: 91 % of control
[5]
  T/C: 91 % of control
[6]
  T/C: 98 % of control
[7]
  T/C: 105 % of control

## CNC(=O)Oc1coc(CCl)cc1=O
dose: 12.0 mg/kg/injection, schedule: Q01DX009 (ip), vehicle: Klucel (hydroxypropylcellulose) (HPC)
  T/C: 93 % of control
dose: 18.0 mg/kg/injection, schedule: Q01DX009 (ip), vehicle: Klucel (hydroxypropylcellulose) (HPC)
  T/C: 96 % of control
dose: 27.0 mg/kg/injection, schedule: Q01DX009 (ip), vehicle: Klucel (hydroxypropylcellulose) (HPC)
  T/C: 96 % of control
dose: 40.0 mg/kg/injection, schedule: Q01DX009 (ip), vehicle: Klucel (hydroxypropylcellulose) (HPC)
  T/C: 106 % of control

## COc1cc(Cc2nccc3cc(OC)c(OC)cc23)c(C(C)=O)cc1OC
[1]
  T/C: 93 % of control
[2]
  T/C: 102 % of control
[3]
  T/C: 97 % of control
[4]
  T/C: 103 % of control
[14]
  T/C: 100 % of control

## C/C=C/CNc1ccccc1
[9]
  T/C: 101 % of control
[10]
  T/C: 94 % of control

## NC1CC1c1ccccc1 (centres undefined)
[1]
  T/C: 91 % of control
[2]
  T/C: 101 % of control
[3]
  T/C: 102 % of control
[4]
  T/C: 113 % of control

## CN1C(=O)OC(C)(C)C1=O
dose: 0.78 mg/kg/injection, schedule: Q04DX003 (ip), vehicle: saline
  T/C: 95 % of control
dose: 1.56 mg/kg/injection, schedule: Q04DX003 (ip), vehicle: saline
  T/C: 100 % of control
dose: 3.12 mg/kg/injection, schedule: Q04DX003 (ip), vehicle: saline
  T/C: 105 % of control
dose: 6.25 mg/kg/injection, schedule: Q04DX003 (ip), vehicle: saline
  T/C: 105 % of control
dose: 12.5 mg/kg/injection, schedule: Q04DX003 (ip), vehicle: saline
  T/C: 100 % of control
[4]
  T/C: 110 % of control
[14]
  T/C: 100 % of control
dose: 100.0 mg/kg/injection, schedule: Q01DX009 (ip), vehicle: saline
  T/C: 100 % of control
dose: 200.0 mg/kg/injection, schedule: Q01DX009 (ip), vehicle: saline
  T/C: 97 % of control
dose: 400.0 mg/kg/injection, schedule: Q01DX009 (ip), vehicle: saline
  T/C: 94 % of control
